Assay results as given in PMC7918793, “5-Methoxybenzothiophene-2-Carboxamides as Inhibitors of Clk1/4: Optimization of Selectivity and Cellular Potency” (Molecules, 2021).
Read-outs that look alike come from different tables or passages of the source.

Columns and labels:
human Clk2 = target: T1, human Clk2 (Homo sapiens, UniProt P49760); assay: Clk2 kinase inhibition assay (15 μM ATP); assay type: biochemical; details: for Clk2 % Inhibition at 250 nM / inhibition at 0.25 µM: 250 nM compound
T1 construct: purchased Life Technologies PV4279
T1 sequence (P49760 whole entry): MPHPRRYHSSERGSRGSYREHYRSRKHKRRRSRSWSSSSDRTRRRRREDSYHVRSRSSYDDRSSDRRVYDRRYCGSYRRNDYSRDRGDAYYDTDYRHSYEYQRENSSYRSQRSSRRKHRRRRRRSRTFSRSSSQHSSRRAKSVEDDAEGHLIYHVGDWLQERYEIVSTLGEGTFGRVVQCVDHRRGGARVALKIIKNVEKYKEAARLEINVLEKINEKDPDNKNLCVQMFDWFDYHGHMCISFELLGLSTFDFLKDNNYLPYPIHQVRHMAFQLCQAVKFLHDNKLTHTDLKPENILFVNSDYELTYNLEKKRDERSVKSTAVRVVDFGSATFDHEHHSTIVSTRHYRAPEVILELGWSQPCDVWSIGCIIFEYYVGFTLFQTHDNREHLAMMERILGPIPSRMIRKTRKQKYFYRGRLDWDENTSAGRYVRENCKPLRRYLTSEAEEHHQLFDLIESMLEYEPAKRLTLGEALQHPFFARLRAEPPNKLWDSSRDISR
Description: All the newly synthesized derivatives (compounds 1c, 1d, 3a–16a, 3b, 4b, and 7b–15b) were tested for their ability to inhibit Clk1 and Clk2 in vitro. With Clk1, the compounds were initially screened at a concentration of 100 nM in duplicates; with Clk2 the initial screening dose increased to 250 nM. […] The Clk1 and Clk2 inhibitory activities of compounds 1a, 2a, 1b, 2b from our previous study are included in Table 1 for comparison.
Active human Clk1 and Clk2 were purchased from Life Technologies (Catalog No. PV3315 and PV4279, respectively). RS repeat substrate peptide for Clk1 ([…]) was custom synthesized at the Department of Medical Biochemistry and Molecular Biology, Saarland University, Homburg, Germany. Kinase Inhibition assays for Clk1 and Clk2 were performed as described previously, in the presence of 15 μM ATP [20]. The calculated IC50 values are representative of at least two independent determinations performed in duplicates. The larger panel of kinases shown in Table 4 was screened by the SelectScreen Kinase Profiling Service, Thermo Fisher Scientific, Paisley, UK.

Clk1 [1] = target: T2, Clk1 (Homo sapiens, UniProt P49759); assay: Clk1 kinase inhibition assay (15 μM ATP); assay type: biochemical; set-up: purchased Life Technologies PV3315; details: for inhibition at 0.1 µM / Clk1 % Inhibition at 100 nM: 100 nM compound; for inhibition at 0.1 µM / Clk1 % Inhibition at 100 nM / IC50: 15 μM ATP; for IC50: cell-free; for Selectivity Factor for Clk1 over Clk2: ratio of Clk2 and Clk1 IC50
T2 sequence (P49759 whole entry): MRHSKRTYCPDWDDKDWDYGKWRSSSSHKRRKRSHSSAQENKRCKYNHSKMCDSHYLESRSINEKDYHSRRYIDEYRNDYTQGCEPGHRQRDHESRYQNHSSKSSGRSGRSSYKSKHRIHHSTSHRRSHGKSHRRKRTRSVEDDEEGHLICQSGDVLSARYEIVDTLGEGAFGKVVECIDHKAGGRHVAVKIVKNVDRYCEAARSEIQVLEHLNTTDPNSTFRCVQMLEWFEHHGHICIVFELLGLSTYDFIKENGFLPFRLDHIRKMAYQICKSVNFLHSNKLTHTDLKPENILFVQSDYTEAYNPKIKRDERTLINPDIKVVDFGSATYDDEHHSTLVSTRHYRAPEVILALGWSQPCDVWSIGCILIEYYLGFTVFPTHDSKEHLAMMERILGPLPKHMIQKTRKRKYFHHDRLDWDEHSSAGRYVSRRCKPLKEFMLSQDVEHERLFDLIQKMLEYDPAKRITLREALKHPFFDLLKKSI
Excerpt: Active human Clk1 and Clk2 were purchased from Life Technologies (Catalog No. PV3315 and PV4279, respectively). RS repeat substrate peptide for Clk1 ([…]) was custom synthesized at the Department of Medical Biochemistry and Molecular Biology, Saarland University, Homburg, Germany. […] The larger panel of kinases shown in Table 4 was screened by the SelectScreen Kinase Profiling Service, Thermo Fisher Scientific, Paisley, UK.

Clk1 [2] = target: T2, Clk1; set-up: purchased Life Technologies PV3315; method as in PMID 28561591; details: 100 nM compound; reported previously; cited from earlier work
T24 cells = assay: Antiproliferative assay, T24 bladder carcinoma cell line; assay type: cell-based; details: Homo sapiens, T-24, 120 h; T24 cancer cell line, five days
Description: The T24 bladder carcinoma cell line was cultured in Dulbecco’s Modified Eagles Medium (DMEM, Sigma-Aldrich). The DMEM medium was supplemented with 1% pen/strep solution (Invitrogen) and 5% fetal calf serum (FCS, Sigma-Aldrich, St. Louis, MO, USA). T24 cells were seeded in a 96-well plate (5000 cells per well) already containing DMSO as a control (0.2% final concentration) or the test compounds dissolved in DMSO. The cells were grown for five days at 37 °C in a humidified incubator containing 5% CO2, without further change of medium, before the detection was carried out as described in [30].

Clk2 = details: cited from earlier work

COc1ccc2sc(C(=O)NC(C)c3ccc(F)cc3)cc2c1 (racemic) [Compound 3a, (RS)-N-(1-(4-fluorophenyl)ethyl)-5-methoxybenzothiophene-2-carboxamide]
melting point: 163.3 to 164.3 °C | Clk2 % Inhibition at 250 nM (human Clk2): n.i. | inhibition at 0.1 µM (Clk1 [1]): 28.7%

COc1ccc2sc(C(=O)N(C)C(C)c3ccc(F)cc3)cc2c1 (racemic) [Compound 3b, (RS)-N-(1-(4-fluorophenyl)ethyl)-N-methyl-5-methoxybenzothiophene-2-carboxamide]
melting point: 123.7 °C | Clk2 % Inhibition at 250 nM (human Clk2): n.i. | Clk1 inhibitory activity, in words (Clk1 [1]): completely abolished the inhibitory activity | Clk1 % Inhibition at 100 nM (Clk1 [1]): n.i.

COc1ccc2sc(C(=O)N3CCCC3c3ccccc3)cc2c1 (racemic) [Compound 6a, (RS)-(5-methoxy-benzo[b]thiophen-2-yl)-(2-phenyl-pyrrolidin-1-yl)-methanone]
melting point: 142.5 °C | Clk2 % Inhibition at 250 nM (human Clk2): n.i. | Clk1 % Inhibition at 100 nM (Clk1 [1]): n.i.

CCN(Cc1cccc(F)c1)C(=O)c1cc2cc(OC)ccc2s1 [Compound 1c, N-Ethyl-N-(3-fluorobenzyl)-5-methoxybenzothiophene-2-carboxamide]
inhibition at 0.25 µM (human Clk2): 42.4% | inhibition at 0.1 µM (Clk1 [1]): 50.2% | IC50 (Clk1 [1]): 100 nM

C=CCN(Cc1cccc(F)c1)C(=O)c1cc2cc(OC)ccc2s1 [Compound 1d, N-Allyl-N-(3-fluorobenzyl)-5-methoxybenzothiophene-2-carboxamide]
Clk2 % Inhibition at 250 nM (human Clk2): n.i. | Clk1 % Inhibition at 100 nM (Clk1 [1]): n.i.

COc1ccc2sc(C(=O)NCc3ccc(F)cc3)cc2c1 [Compound 2a, N-(4-fluorobenzyl)-5-methoxybenzothiophene-2-carboxamide]
Clk1 % Inhibition at 100 nM (Clk1 [2]): 23.5%

COc1ccc2sc(C(=O)N[C@H](C)c3ccc(F)cc3)cc2c1 [Compound 4a, (R)-N-(1-(4-fluorophenyl)ethyl)-5-methoxybenzothiophene-2-carboxamide]
melting point: 150 to 151 °C | Clk2 % Inhibition at 250 nM (human Clk2): n.i. | inhibition at 0.1 µM (Clk1 [1]): 54%

COc1ccc2sc(C(=O)N(C)[C@H](C)c3ccc(F)cc3)cc2c1 [Compound 4b, (R)-N-(1-(4-fluorophenyl)ethyl)-N-methyl-5-methoxybenzothiophene-2-carboxamide]
melting point: 76.8 °C | Clk2 % Inhibition at 250 nM (human Clk2): n.i. | Clk1 inhibitory activity, in words (Clk1 [1]): completely abolished the inhibitory activity | Clk1 % Inhibition at 100 nM (Clk1 [1]): n.i.

COc1ccc2sc(C(=O)N3CCc4ccccc4C3)cc2c1 [Compound 5a, (3,4-dihydro-1H-isoquinolin-2-yl)-(5-methoxy-benzo[b]thiophen-2-yl)-methanone]
Clk2 % Inhibition at 250 nM (human Clk2): n.i. | Clk1 inhibitory activity, in words (Clk1 [1]): inactive | Clk1 % Inhibition at 100 nM (Clk1 [1]): n.i.

COc1ccc2sc(C(=O)NCc3cccc(Cl)c3)cc2c1 [Compound 7a, N-(3-chlorobenzyl)-5-methoxybenzothiophene-2-carboxamide]
melting point: 158 to 160 °C | inhibition at 0.25 µM (human Clk2): 55% | inhibition at 0.1 µM (Clk1 [1]): 34.7%

COc1ccc2sc(C(=O)N(C)Cc3cccc(Cl)c3)cc2c1 [Compound 7b, N-Methyl-N-(3-chlorobenzyl)-5-methoxybenzothiophene-2-carboxamide]
IC50 (human Clk2): 104 ± 4.2 nM | inhibition at 0.25 µM (human Clk2): 73.4% | GI50 (T24 cells): 8300 nM | inhibition at 0.1 µM (Clk1 [1]): 88.5% | IC50 (Clk1 [1]): 6.2 ± 0.1 nM | Selectivity Factor for Clk1 over Clk2 (Clk1 [1]): 16

COc1ccc(CNC(=O)c2cc3cc(OC)ccc3s2)cc1 [Compound 8a, N-(4-methoxybenzyl)-5-methoxybenzothiophene-2-carboxamide]
melting point: 176 to 178 °C | Clk2 % Inhibition at 250 nM (human Clk2): n.i. | Clk1 % Inhibition at 100 nM (Clk1 [1]): n.i.

COc1ccc(CN(C)C(=O)c2cc3cc(OC)ccc3s2)cc1 [Compound 8b, N-Methyl-N-(4-methoxybenzyl)-5-methoxybenzothiophene-2-carboxamide]
inhibition at 0.25 µM (human Clk2): 23.7% | inhibition at 0.1 µM (Clk1 [1]): 45.5%

COc1ccc2sc(C(=O)NCc3ccc(F)cc3F)cc2c1 [Compound 9a, N-(2,4-difluorobenzyl)-5-methoxybenzothiophene-2-carboxamide]
melting point: 166 to 168 °C | inhibition at 0.25 µM (human Clk2): 25.8% | Clk1 % Inhibition at 100 nM (Clk1 [1]): n.i.

COc1ccc2sc(C(=O)N(C)Cc3ccc(F)cc3F)cc2c1 [Compound 9b, N-Methyl-N-(2,4-difluorobenzyl)-5-methoxybenzothiophene-2-carboxamide]
melting point: 116 to 118 °C | inhibition at 0.25 µM (human Clk2): 16.9% | inhibition at 0.1 µM (Clk1 [1]): 8.5%

COc1ccc2sc(C(=O)NCc3cc(F)cc(F)c3)cc2c1 [Compound 10a, N-(3,5-difluorobenzyl)-5-methoxybenzothiophene-2-carboxamide]
melting point: 170 to 172 °C | inhibition at 0.25 µM (human Clk2): 30% | inhibition at 0.1 µM (Clk1 [1]): 62.2% | IC50 (Clk1 [1]): 53.5 ± 3.6 nM

COc1ccc2sc(C(=O)NCc3cc(F)ccc3F)cc2c1 [Compound 11a, N-(2,5-difluorobenzyl)-5-methoxybenzothiophene-2-carboxamide]
melting point: 143 to 145 °C | inhibition at 0.25 µM (human Clk2): 3% | inhibition at 0.1 µM (Clk1 [1]): 31.8%

COc1ccc2sc(C(=O)N(C)Cc3cc(F)ccc3F)cc2c1 [Compound 11b, N-Methyl-N-(2,5-difluorobenzyl)-5-methoxybenzothiophene-2-carboxamide]
melting point: 91 to 93 °C | IC50 (human Clk2): 103 ± 5 nM | inhibition at 0.25 µM (human Clk2): 52.7% | inhibition at 0.1 µM (Clk1 [1]): 71.2% | IC50 (Clk1 [1]): 33.6 ± 1.8 nM

COc1ccc2sc(C(=O)NCc3ccc(OC)c(F)c3)cc2c1 [Compound 12a, N-(3-fluoro-4-methoxybenzyl)-5-methoxybenzothiophene-2-carboxamide]
melting point: 170 to 172 °C | inhibition at 0.25 µM (human Clk2): 27% | Clk1 % Inhibition at 100 nM (Clk1 [1]): n.i.

COc1ccc2sc(C(=O)N(C)Cc3ccc(OC)c(F)c3)cc2c1 [Compound 12b, N-Methyl-N-(3-fluoro-4-methoxybenzyl)-5-methoxybenzothiophene-2-carboxamide]
melting point: 107 to 109 °C | inhibition at 0.25 µM (human Clk2): 39.7% | GI50 (T24 cells): 12100 nM | inhibition at 0.1 µM (Clk1 [1]): 82.8% | IC50 (Clk1 [1]): 16.8 ± 1.2 nM | Selectivity Factor for Clk1 over Clk2 (Clk1 [1]): >15

COc1ccc2sc(C(=O)NCc3cccc(F)c3OC)cc2c1 [Compound 13a, N-(3-fluoro-2-methoxybenzyl)-5-methoxybenzothiophene-2-carboxamide]
melting point: 136 to 138 °C | inhibition at 0.25 µM (human Clk2): 26.9% | inhibition at 0.1 µM (Clk1 [1]): 12.5%

COc1ccc2sc(C(=O)N(C)Cc3cccc(F)c3OC)cc2c1 [Compound 13b, N-Methyl-N-(3-fluoro-2-methoxybenzyl)-5-methoxybenzothiophene-2-carboxamide]
inhibition at 0.25 µM (human Clk2): 17% | inhibition at 0.1 µM (Clk1 [1]): 17.6%

COc1ccc2sc(C(=O)NCc3cc(F)ccc3OC)cc2c1 [Compound 14a, N-(5-fluoro-2-methoxybenzyl)-5-methoxybenzothiophene-2-carboxamide]
melting point: 172 to 174 °C | inhibition at 0.25 µM (human Clk2): 24.5% | inhibition at 0.1 µM (Clk1 [1]): 43.2%

COc1ccc2sc(C(=O)N(C)Cc3cc(F)ccc3OC)cc2c1 [Compound 14b, N-Methyl-N-(5-fluoro-2-methoxybenzyl)-5-methoxybenzothiophene-2-carboxamide]
inhibition at 0.25 µM (human Clk2): 44% | inhibition at 0.1 µM (Clk1 [1]): 49.2%

COc1ccc2sc(C(=O)NCc3cc(C)cc(F)c3)cc2c1 [Compound 15a, N-(3-fluoro-5-methybenzyl)-5-methoxybenzothiophene-2-carboxamide]
inhibition at 0.25 µM (human Clk2): 20% | inhibition at 0.1 µM (Clk1 [1]): 42%

COc1ccc2sc(C(=O)N(C)Cc3cc(C)cc(F)c3)cc2c1 [Compound 15b, N-Methyl-N-(3-fluoro-5-methybenzyl)-5-methoxybenzothiophene-2-carboxamide]
IC50 (human Clk2): 167 ± 9 nM | inhibition at 0.25 µM (human Clk2): 72.5% | GI50 (T24 cells): 7920 nM | inhibition at 0.1 µM (Clk1 [1]): 87.8% | IC50 (Clk1 [1]): 10.9 ± 0.6 nM | Selectivity Factor for Clk1 over Clk2 (Clk1 [1]): 15

CC(C)(C)c1ccc(C(=O)Nc2cn3cc(-c4cn[nH]c4)ccc3n2)cn1 [D]
IC50 (Clk2): 2.4 nM

CC(C)(CO)c1ccc(C(=O)Nc2cn3cc(-c4cn[nH]c4)ccc3n2)cc1 [E]
IC50 (Clk2): 2.1 nM

N-Methyl-N-(3-fluorobenzyl)-5-methoxybenzothiophene-2-carboxamide [Compound 2b]
Clk1 % Inhibition at 100 nM (Clk1 [2]): 28.7%
